{
  "source": "paper PMC10888688",
  "about": "(International Journal of Molecular Sciences, 2024)",
  "key": {"[1]": {"test_system": "Escherichia coli ATCC 25922", "test": "MIC, broth dilution, E. coli", "type": "cell-based", "conditions": "MH broth, overnight at 37 °C, peptide 0 to 16 μM, OD600, E. coli ATCC 25922", "method": "(§1) Typically, an overnight bacterial culture was grown to the mid-log phase on a shaker at 183 rpm, at 37 °C, and then diluted in 2X Mueller Hinton (MH) broth (Millipore-Sigma^TM, Saint Louis, MO, USA) to achieve a final OD of 0.002. In a 96-well plate, 100 μL of the diluted bacterial culture along with 100 μL of peptide, concentrations ranging from 0 μM to 16 μM, was added and incubated overnight at 37 °C. Peptide concentrations were estimated by UV absorbance at a wavelength of 274 nm using a molar extinction coefficient (ε) of 1420 M^−1 cm^−1. Bacterial growth inhibition was determined by absorbance of 96 well plates at OD600 nm using a Cytation spectrophotometer (Agilent, Santa Clara, CA, USA)."}, "[2]": {"test_system": "Acinetobacter baumannii ATCC BAA-1798", "test": "MIC, A. baumannii", "type": "cell-based", "conditions": "A. baumannii ATCC BAA-1798; broth dilution, overnight at 37 °C, peptide 0 to 16 μM", "method": "as §1"}, "[3]": {"test_system": "Streptococcus pyogen ATCC 19615", "test": "MIC, broth dilution, S. pyogenes", "type": "cell-based, Streptococcus pyogenes", "conditions": "MH broth, overnight at 37 °C, peptide 0 to 16 μM, OD600, S. pyogenes ATCC 19615", "method": "as §1"}, "[4]": {"test_system": "Enterococcus faecalis ATCC 29212", "test": "MIC, broth dilution, E. faecalis", "type": "cell-based", "conditions": "MH broth, overnight at 37 °C, peptide 0 to 16 μM, OD600, E. faecalis ATCC 29212", "method": "as §1"}, "[5]": {"test_system": "human kidney cell line HEK 293T", "test": "MTS cell survival assay, HEK 293T", "type": "cell-based", "conditions": "OD490, overnight at 37 °C/5% CO2, Figure 1", "method": "(§2) Assays were conducted in complete media for cells Dulbecco’s Modified Eagle Medium (DMEM; Gibco; Waltham, MA USA, catalog number: 11995065) supplemented with 10% fetal bovine serum (FBS; Hyclone; Logan, UT, USA, catalog number: SV30160.03HI-1). […] All dose-response peptide dilutions were prepared in a U-bottom 96-well plate. 0.02 × 10^6 cells/50 µL of complete media were seeded overnight per well in a 96-well plate, and 105 µL of serum-free (sf) DMEM were added. Cells and peptides were incubated at 37 °C/5% CO2 overnight. Cell viability was checked using MTS assay and read after 30–45 min, and absorbance at OD490 was read using Tecan Infinite 200 Pro plate reader (Tecan, Mannedrof, Switzerland, CellTiter96®AQueous One Solution Cell Proliferation Assay (MTS); catalog number: G3580)."}, "liver cell line Hep G2": {"test_system": "liver cell line Hep G2", "test": "MTS cell survival assay, Hep G2", "type": "cell-based, human", "conditions": "OD490, overnight at 37 °C/5% CO2, Figure 1", "method": "as §2"}, "LptAm of E. coli": {"target": "T1, LptAm of E. coli (Escherichia coli, UniProt P0ADV1)", "T1 construct": "Recombinant LptAm (residues 28–159) of E. coli; His-tag; made in house; host or cells: E. coli BL21", "test": "LptAm binding by ITC"}, "Gram-negative bacteria [6]": {"test_system": "Gram-negative bacteria", "conditions": "cited from earlier work", "text": "Currently, viable antibiotics available to mitigate infections caused by drug-resistant Gram-negative bacteria are highly limited. Thanatin, a 21-residue-long insect-derived antimicrobial peptide (AMP), is a promising lead molecule for the potential development of novel antibiotics. […] As a mode of action, cationic thanatin efficiently permeabilizes the LPS-outer membrane and binds to the periplasmic protein LptAm to inhibit outer membrane biogenesis. […] In this work, we have investigated shorter variants of thanatin in terms of their antibacterial activity, atomic resol ... || Previous studies have shown that residues at the N-terminus of thanatin ([…]) can be dispensable for antimicrobial activity. By contrast, deletion of residues at the C-terminus of thanatin drastically reduces activity against Gram-negative bacteria. […] However, antibacterial activity was ..."}, "Gram-negative bacteria [7]": {"test_system": "Gram-negative bacteria", "conditions": "cited from earlier work", "text": "(§3) Cationic AMPs are known ...", "remark": "listed apart in the source"}, "[8]": {"test_system": "outer membrane of Gram-negative bacteria", "conditions": "binding with negatively charged LPS; cited from earlier work", "text": "as §3"}, "LptAm": {"test_system": "LptAm", "conditions": "truncated functional variant of LptA; cited from earlier work", "text": "The 21-residue-long thanatin was isolated from the hemolymph of the bacteria-treated insect Podisus maculiventris. A single disulfide bond between residues Cys11 and […] stabilizes the β-hairpin structure of thanatin with a flexible N-terminus region. […] Cationic AMPs are known ..."}, "LptA and LptC complex": {"test_system": "LptA and LptC complex", "conditions": "binding of LptA; cited from earlier work", "text": "(§4) In this work, we have investigated shorter variants of thanatin in terms of their antibacterial activity, atomic resol ..."}, "[9]": {"test_system": "periplasmic part of the β-taco domain of LptD", "conditions": "cited from earlier work", "text": "as §4"}, "[10]": {"conditions": "cited from earlier work", "text": "Host defense AMPs contain a high potential to combat drug or multidrug-resistant bacterial pathogens. AMPs are evolutionary conserved molecules found in all kingdoms of life that are effective in fending off infections as a part of innate immunity. The broad-spectrum activity of AMPs provides vital lead molecules for the next generation of antibiotics. In particular, the ability of AMPs to kill Gram-negative bacteria can be exploited for the designing of new antibiotics against drug-resistant strains."}},
  "note": "pKd: −log10 of the molar value. “Also recorded” adds a separate entry of the source. Ends that are not written are not given here.",
  "data": [
    {"molecule": "CC[C@H](C)[C@H](NC(=O)[C@@H](NC(=O)[C@@H]1CCCN1C(=O)[C@@H](N)C(C)C)[C@@H](C)CC)C(=O)N[C@@H](Cc1ccc(O)cc1)C(=O)N[C@H]1CSSC[C@@H](C(=O)N[C@@H](CCC(N)=O)C(=O)N[C@@H](CCCNC(=N)N)C(=O)N[C@@H](Cc2ccccc2)C(N)=O)NC(=O)[C@H](CCCCN)NC(=O)[C@@H](CCCCN)NC(=O)[C@H]([C@@H](C)O)NC(=O)[C@H](CCCNC(=N)N)NC(=O)[C@H](CCCNC(=N)N)NC(=O)[C@H](CC(N)=O)NC1=O", "note": "[VF16]", "values": [
      {"measurement": "MIC (EC)", "setting": "[1]", "value": 0.5, "unit": "µM"},
      {"measurement": "MIC (AB)", "setting": "[2]", "value": ">16", "unit": "µM"},
      {"measurement": "MIC (SP)", "setting": "[3]", "value": 1, "unit": "µM"},
      {"measurement": "MIC (EF)", "setting": "[4]", "value": ">16", "unit": "µM"},
      {"measurement": "toxicity / cell survival, HEK 293T, in words", "setting": "[5]", "value": "did not show any detectable toxicity; also recorded: essentially non-toxic as both the cell lines demonstrate a high percentage of survival"},
      {"measurement": "toxicity / cell survival, Hep G2, in words", "setting": "liver cell line Hep G2", "value": "did not show any detectable toxicity; also recorded: essentially non-toxic as both the cell lines demonstrate a high percentage of survival"},
      {"measurement": "pKd", "setting": "LptAm of E. coli", "value": 6.60}
    ]},
    {"molecule": "GSKKPVPIIYCNRRTGKCQRM (disulfide) [thanatin, 21-residue-long insect-derived antimicrobial peptide isolated from Podisus maculiventris, single disulfide bond Cys11-Cys16]", "values": [
      {"measurement": "activity against Gram-negative pathogens, in words (abstract)", "setting": "Gram-negative bacteria [6]; Enterobacter group, e.g., E. coli and K. pneumoniae, background statement, no reference given", "value": "extremely potent"},
      {"measurement": "activity against Gram-negative bacteria, in words", "setting": "Gram-negative bacteria [6]; including drug-resistant strains of E. coli and K. pneumoniae", "value": "potent activity"},
      {"measurement": "effect in animal models of sepsis and infections, in words", "setting": "Gram-negative bacteria [7]", "value": "lowering of Gram-negative bacterial loads and also neutralization of toxicity of LPS"},
      {"measurement": "outer membrane permeabilization, in words", "setting": "[8]", "value": "efficient permeabilization of the outer membrane of Gram-negative bacteria"},
      {"measurement": "LptAm binding, in words", "setting": "LptAm", "value": "high-affinity binding with LptAm"},
      {"measurement": "inhibition of LPS transport, in words", "setting": "LptA and LptC complex", "value": "disrupting LptA and LptC complex"},
      {"measurement": "LptD binding, in words", "setting": "[9]", "value": "binds to the periplasmic part of the β-taco domain of LptD"}
    ]},
    {"molecule": "polymyxin B", "values": [
      {"measurement": "nephrotoxicity, in words", "setting": "[10]", "value": "nephrotoxicity"}
    ]},
    {"molecule": "thanatin analog with M21F substitution: thanatin analog with M21F substitution (GSKKPVPIIYCNRRTGKCQRF; ends and bridges not checked; cysteine pairing not given here; UniProt P55788 1-21, looked up, variant M21F)", "values": [
      {"measurement": "antibacterial activity of M21F analog, in words", "setting": "Gram-negative bacteria [6]; compared with thanatin", "value": "better antibacterial activity"}
    ]}
  ]
}
